Drawing on PubChem BioAssay AID328 (DTP/NCI, 2004), this text covers T/C for ten compounds.

Several values for one entry are separate records, joined by “and”; a condition that tells them apart may be missing. Identical values can stand only once. Inconclusive results and toxic doses are left out.

In this assay the test system is BDF1 mice, P388 leukemia ip, median survival T/C. The assay is described as follows: NCI In Vivo Anticancer Drug Screen. Data for tumor model P388 Leukemia (intraperitoneal) in B6D2F1 (BDF1) mice. The note with it: endpoint: median survival time, higher = longer survival. A digest of the protocol: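 T/C = treated-group survival ÷ vehicle-control survival; tumour transplanted into mice before dosing.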

Setting [1] is: dose: 400.0 mg/kg/injection, schedule: Q01DX009 (ip), vehicle: saline with Tween-80.
The mark [2] stands for this setting: dose: 50.0 mg/kg/injection, schedule: Q01DX009 (ip), vehicle: saline with Tween-80.
Setting [3] is: dose: 50.0 mg/kg/injection, schedule: Q04DX003 (ip), vehicle: saline with Tween-80.
The mark [4] stands for this setting: dose: 100.0 mg/kg/injection, schedule: Q04DX003 (ip), vehicle: saline with Tween-80.
Where [5] appears, read: dose: 100.0 mg/kg/injection, schedule: Q01DX009 (ip), vehicle: saline with Tween-80.
[6] abbreviates: dose: 200.0 mg/kg/injection, schedule: Q01DX009 (ip), vehicle: saline with Tween-80.
[7] abbreviates: dose: 200.0 mg/kg/injection, schedule: Q04DX003 (ip), vehicle: saline with Tween-80.
Where [8] appears, read: dose: 400.0 mg/kg/injection, schedule: Q04DX003 (ip), vehicle: saline with Tween-80.

In the case of `CCCCCCC(C)NCC(O)COc1cccc(C)c1` (centres undefined), the T/C was 113 % of control (dose: 3.12 mg/kg/injection, schedule: Q01DX009 (ip), vehicle: Klucel (hydroxypropylcellulose) (HPC)); 116 % of control (dose: 12.5 mg/kg/injection, schedule: Q01DX009 (ip), vehicle: Klucel (hydroxypropylcellulose) (HPC)); 120 % of control (dose: 25.0 mg/kg/injection, schedule: Q01DX009 (ip), vehicle: Klucel (hydroxypropylcellulose) (HPC)).
For `NCC(=O)Nc1ccc(O)cc1`, the T/C (dose: 79.0 mg/kg/injection, schedule: Q04DX003 (ip), vehicle: saline with Tween-80) was 100 % of control; the T/C (dose: 118.0 mg/kg/injection, schedule: Q04DX003 (ip), vehicle: saline with Tween-80) was 104 % of control; the T/C (dose: 176.0 mg/kg/injection, schedule: Q04DX003 (ip), vehicle: saline with Tween-80) is 100 % of control; the T/C under setting [1] is 118 % of control; the T/C (dose: 600.0 mg/kg/injection, schedule: Q01DX009 (ip), vehicle: saline with Tween-80) is 90 % of control.
`O=NN(CCCl)C(=O)Nc1ccc(CCO)cc1`: the T/C is 100 % of control (dose: 0.12 mg/kg/injection, schedule: Q04DX003 (ip), vehicle: saline); 112 % of control (dose: 0.13 mg/kg/injection, schedule: Q01DX009 (ip), vehicle: Klucel (hydroxypropylcellulose) (HPC)); 91 % of control (dose: 0.2 mg/kg/injection, schedule: Q01DX009 (ip), vehicle: Klucel (hydroxypropylcellulose) (HPC)); 100 % of control (dose: 0.2 mg/kg/injection, schedule: Q01DX009 (ip), vehicle: alcohol); 104 % of control (dose: 0.25 mg/kg/injection, schedule: Q04DX003 (ip), vehicle: saline); 108 % of control (dose: 0.3 mg/kg/injection, schedule: Q01DX009 (ip), vehicle: alcohol). The T/C (dose: 0.5 mg/kg/injection, schedule: Q01DX009 (ip), vehicle: alcohol) is 150 % of control; the T/C (dose: 0.5 mg/kg/injection, schedule: Q01DX009 (ip), vehicle: other) is 181 % of control; the T/C (dose: 0.5 mg/kg/injection, schedule: Q04DX003 (ip), vehicle: saline + alcohol) is 155 % of control; the T/C (dose: 0.5 mg/kg/injection, schedule: Q04DX003 (ip), vehicle: saline) was 117 % of control; the T/C (dose: 1.0 mg/kg/injection, schedule: Q01DX009 (ip), vehicle: Klucel (hydroxypropylcellulose) (HPC)) is 150 % of control; the T/C (dose: 1.0 mg/kg/injection, schedule: Q01DX009 (ip), vehicle: alcohol) was 183 % of control. Also, the T/C (dose: 1.0 mg/kg/injection, schedule: Q01DX009 (ip), vehicle: other) was 181 % of control; the T/C (dose: 1.0 mg/kg/injection, schedule: Q04DX003 (ip), vehicle: saline + alcohol) was 188 % of control; the T/C (dose: 1.65 mg/kg/injection, schedule: Q01DX009 (ip), vehicle: Klucel (hydroxypropylcellulose) (HPC)) was 200 % of control; the T/C (dose: 1.65 mg/kg/injection, schedule: Q01DX009 (ip), vehicle: saline) was 266 % of control; the T/C (dose: 2.0 mg/kg/injection, schedule: Q01DX009 (ip), vehicle: alcohol) is 237 % of control; the T/C (dose: 2.0 mg/kg/injection, schedule: Q01DX009 (ip), vehicle: other) is 254 % of control. For the same compound, the T/C (dose: 2.0 mg/kg/injection, schedule: Q04DX003 (ip), vehicle: saline + alcohol) was 255 % of control; the T/C (dose: 2.5 mg/kg/injection, schedule: Q01DX009 (ip), vehicle: Klucel (hydroxypropylcellulose) (HPC)) was 257 % of control; the T/C (dose: 2.5 mg/kg/injection, schedule: Q01DX009 (ip), vehicle: saline with Tween-80) was 240 % of control; the T/C (dose: 2.5 mg/kg/injection, schedule: Q01DX009 (ip), vehicle: saline) was 333 % of control; the T/C (dose: 3.75 mg/kg/injection, schedule: Q01DX009 (ip), vehicle: Klucel (hydroxypropylcellulose) (HPC)) was 289 % of control; the T/C (dose: 3.75 mg/kg/injection, schedule: Q01DX009 (ip), vehicle: saline) was 333 % of control. The T/C (dose: 4.0 mg/kg/injection, schedule: Q01DX009 (ip), vehicle: alcohol) was 250 % of control; the T/C (dose: 4.0 mg/kg/injection, schedule: Q01DX009 (ip), vehicle: other) was 272 % of control; the T/C (dose: 4.0 mg/kg/injection, schedule: Q04DX003 (ip), vehicle: saline + alcohol) was 322 % of control; the T/C (dose: 5.0 mg/kg/injection, schedule: Q01DX009 (ip), vehicle: saline with Tween-80) was 270 % of control; the T/C (dose: 6.25 mg/kg/injection, schedule: Q01DX009 (ip), vehicle: saline) was 180 % of control; the T/C (dose: 6.25 mg/kg/injection, schedule: Q04DX003 (ip), vehicle: saline + alcohol) was 272 % of control. For the same compound, the T/C by setting is: (dose: 10.0 mg/kg/injection, schedule: Q01DX009 (ip), vehicle: saline with Tween-80) 110 % of control; (dose: 12.5 mg/kg/injection, schedule: Q01DX009 (ip), vehicle: saline) 100 % of control; (dose: 12.5 mg/kg/injection, schedule: Q04DX003 (ip), vehicle: saline + alcohol) 272 % of control; (dose: 25.0 mg/kg/injection, schedule: Q04DX003 (ip), vehicle: saline sonified) 90 % of control.
`O=[N+]([O-])OCc1c(Cl)nc(Cl)c(Cl)c1Cl`: the T/C (dose: 25.0 mg/kg/injection, schedule: Q01DX009 (ip), vehicle: saline with Tween-80) was 115 % of control; the T/C (dose: 25.0 mg/kg/injection, schedule: Q04DX003 (ip), vehicle: saline with Tween-80) was 95 % of control; the T/C under setting [2] is 110 % of control; the T/C under setting [3] is 100 % of control; the T/C under setting [4] was 108 % of control.
For `O=C1C2ON=C(c3ccccc3)C2C(=O)N1OS(=O)(=O)c1ccccc1` (centres undefined), the T/C was 100 % of control under setting [5]; 100 % of control under setting [4]; 109 % of control under setting [6]; 100 % of control under setting [7]; 100 % of control under setting [8].
Regarding `CC(=O)N(C)Nc1ccccc1`, the T/C is 100 % of control under setting [3]; 90 % of control and 100 % of control under setting [4]; 105 % of control under setting [7].
As to `COc1ccc(OC)c(C(C)(O)CC(=O)O)c1` (centres undefined), the T/C under setting [2] was 89 % of control; the T/C under setting [5] was 107 % of control; the T/C under setting [4] is 112 % of control; the T/C under setting [6] was 105 % of control; the T/C under setting [7] was 103 % of control; the T/C under setting [1] was 90 % of control. Besides, the T/C under setting [8] was 117 % of control.
As to `C[N+](C)(C)Cc1ccccc1C[N+](C)(C)C`, the T/C by setting is: (dose: 25.0 mg/kg/injection, schedule: Q01DX009 (ip), vehicle: saline) 116 % of control; (dose: 50.0 mg/kg/injection, schedule: Q01DX009 (ip), vehicle: saline) 112 % of control; (dose: 100.0 mg/kg/injection, schedule: Q01DX009 (ip), vehicle: saline) 112 % of control.
Turning to `O/N=c1/ccn(O)c2ccccc12`, the T/C (dose: 0.14 mg/kg/injection, schedule: Q01DX009 (ip), vehicle: saline) is 168 % of control; the T/C (dose: 0.19 mg/kg/injection, schedule: Q04DX003 (ip), vehicle: saline) was 116 % of control; the T/C (dose: 0.29 mg/kg/injection, schedule: Q04DX003 (ip), vehicle: saline) is 120 % of control; the T/C (dose: 0.34 mg/kg/injection, schedule: Q01DX009 (ip), vehicle: saline) is 155 % of control and 183 % of control and 190 % of control; the T/C (dose: 0.44 mg/kg/injection, schedule: Q04DX003 (ip), vehicle: saline) was 180 % of control; the T/C (dose: 0.51 mg/kg/injection, schedule: Q01DX009 (ip), vehicle: saline) was 162 % of control and 170 % of control and 195 % of control. The T/C (dose: 0.66 mg/kg/injection, schedule: Q04DX003 (ip), vehicle: saline) is 210 % of control; the T/C (dose: 1.0 mg/kg/injection, schedule: Q04DX003 (ip), vehicle: saline) was 172 % of control; the T/C (dose: 1.5 mg/kg/injection, schedule: Q04DX003 (ip), vehicle: saline) was 181 % of control; the T/C (dose: 4.65 mg/kg/injection, schedule: Q04DX003 (ip), vehicle: saline) was 173 % of control; the T/C (dose: 11.0 micrograms/kg/injection, schedule: Q01DX009 (ip), vehicle: saline) was 104 % of control; the T/C (dose: 22.0 micrograms/kg/injection, schedule: Q01DX009 (ip), vehicle: saline) was 108 % of control. Further, the T/C (dose: 45.0 micrograms/kg/injection, schedule: Q01DX009 (ip), vehicle: saline) was 104 % of control.
Turning to `CC1CCCCC12OCCO2` (centres undefined), the T/C is 100 % of control under setting [2]; 113 % of control under setting [5]; 100 % of control under setting [4]; 104 % of control under setting [6]; 109 % of control under setting [7]; 100 % of control under setting [8].
